Test system: 485176-168-R4-J1-PDC complex spheroid growth
Assay: Anticancer human tumor 485176-168-R4-J1-PDC patient-derived pancreatic adenocarcinoma cell line growth inhibition [RAS]
Conditions: for IC50: curve of first compound; for viability, T/C: stronger effect = lower value
Outline: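 Multi-cell-type spheroids: tumor cells plus HUVEC endothelial cells and mesenchymal stem cells. RAS-pathway inhibitors were combined with targeted agents, each dosed in half-log steps down from clinical Cmax, or from 10 microM when Cmax was unknown.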

[1] = second compound 0.000949 µM, first compound 0.000949 µM
[2] = second compound 0.000949 µM, first compound 0.003 µM
[3] = second compound 0.000949 µM, first compound 0.00949 µM
[4] = second compound 0.000949 µM, first compound 0.03 µM
[5] = second compound 0.000949 µM, first compound 0.0949 µM
[6] = second compound 0.000949 µM, first compound 0.3 µM
[7] = second compound 0.003 µM, first compound 0.000949 µM
[8] = second compound 0.003 µM, first compound 0.003 µM
[9] = second compound 0.003 µM, first compound 0.00949 µM
[10] = second compound 0.003 µM, first compound 0.03 µM
[11] = second compound 0.003 µM, first compound 0.0949 µM
[12] = second compound 0.003 µM, first compound 0.3 µM
[13] = second compound 0.00949 µM, first compound 0.000949 µM
[14] = second compound 0.00949 µM, first compound 0.003 µM
[15] = second compound 0.00949 µM, first compound 0.00949 µM
[16] = second compound 0.00949 µM, first compound 0.03 µM
[17] = second compound 0.00949 µM, first compound 0.0949 µM
[18] = second compound 0.00949 µM, first compound 0.3 µM
[19] = second compound 0.03 µM, first compound 0.000949 µM
[20] = second compound 0.03 µM, first compound 0.003 µM
[21] = second compound 0.03 µM, first compound 0.00949 µM
[22] = second compound 0.03 µM, first compound 0.03 µM
[23] = second compound 0.03 µM, first compound 0.0949 µM
[24] = second compound 0.03 µM, first compound 0.3 µM
[25] = second compound 0.0949 µM, first compound 0.000949 µM
[26] = second compound 0.0949 µM, first compound 0.003 µM
[27] = second compound 0.0949 µM, first compound 0.00949 µM
[28] = second compound 0.0949 µM, first compound 0.03 µM
[29] = second compound 0.0949 µM, first compound 0.0949 µM
[30] = second compound 0.0949 µM, first compound 0.3 µM
[31] = second compound 0.3 µM, first compound 0.000949 µM
[32] = second compound 0.3 µM, first compound 0.003 µM
[33] = second compound 0.3 µM, first compound 0.00949 µM
[34] = second compound 0.3 µM, first compound 0.03 µM
[35] = second compound 0.3 µM, first compound 0.0949 µM
[36] = second compound 0.3 µM, first compound 0.3 µM
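Note: spheroids exposed to compounds for seven days before readout.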
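Throughout, for viability, T/C: luminescence viability expressed relative to DMSO vehicle wells set as 100%.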

Which results are given for `CCc1c2c(nc3ccc(O)cc13)-c1cc3c(c(=O)n1C2)COC(=O)[C@]3(O)CC` + CCn1c(-c2cc(N3CCN(C)CC3)cnc2C(C)OC)c2c3cc(ccc31)-c1csc(n1)CC(NC(=O)C1CC1C)C(=O)N1CCCC(N1)C(=O)OCC(C)(C)C2?
IC50 (second compound 0.000949 µM): 13.9 nM; IC50 (second compound 0.003 µM): 12.4 nM; IC50 (second compound 0.00949 µM): 11.6 nM; IC50 (second compound 0.03 µM): 11.2 nM; IC50 (second compound 0.0949 µM): 10.3 nM; IC50 (second compound 0.3 µM): 7.16 nM; viability, T/C [1]: 104%; viability, T/C [2]: 77.5%; viability, T/C [3]: 64.3%; viability, T/C [4]: 30.8%; viability, T/C [5]: 16.6%; viability, T/C [6]: 9.25%; viability, T/C [7]: 95%; viability, T/C [8]: 86%; viability, T/C [9]: 55.6%; viability, T/C [10]: 27.8%; viability, T/C [11]: 16.1%; viability, T/C [12]: 9.83%; viability, T/C [13]: 81.2%; viability, T/C [14]: 77.8%; viability, T/C [15]: 50.3%; viability, T/C [16]: 32.4%; viability, T/C [17]: 16.2%; viability, T/C [18]: 7.59%; viability, T/C [19]: 70.7%; viability, T/C [20]: 72.3%; viability, T/C [21]: 52.3%; viability, T/C [22]: 28.3%; viability, T/C [23]: 15.9%; viability, T/C [24]: 12%; viability, T/C [25]: 70.1%; viability, T/C [26]: 76.8%; viability, T/C [27]: 45.2%; viability, T/C [28]: 32.5%; viability, T/C [29]: 17%; viability, T/C [30]: 9.84%; viability, T/C [31]: 78.3%; viability, T/C [32]: 62.1%; viability, T/C [33]: 47.3%; viability, T/C [34]: 27.6%; viability, T/C [35]: 15.2%; viability, T/C [36]: 6.04%

Which results are given for `CC1(C)CCC(Nc2ncc(C(F)(F)F)c(-c3c[nH]c4c(P(C)(C)=O)c(C#N)ccc34)n2)CN1` (centres undefined) + CCn1c(-c2cccnc2C(C)OC)c2c3cc(ccc31)N1CCOC(CC(NC(=O)C(C(C)C)N(C)C(=O)C3(F)CCN(C(=O)C#CC(C)(C)N(C)C)CC3)C(=O)N3CCCC(N3)C(=O)OCC(C)(C)C2)C1?
IC50 (second compound 0.000949 µM): > 300 nM; IC50 (second compound 0.003 µM): > 300 nM; IC50 (second compound 0.00949 µM): 66.8 nM; IC50 (second compound 0.03 µM): 26.5 nM; IC50 (second compound 0.0949 µM): 20.8 nM; IC50 (second compound 0.3 µM): 13.2 nM; viability, T/C [1]: 91.9%; viability, T/C [2]: 93.3%; viability, T/C [3]: 86.8%; viability, T/C [4]: 59.5%; viability, T/C [5]: 52.8%; viability, T/C [6]: 54.1%; viability, T/C [7]: 99.1%; viability, T/C [8]: 90.7%; viability, T/C [9]: 87.5%; viability, T/C [10]: 58.3%; viability, T/C [11]: 54.5%; viability, T/C [12]: 51.7%; viability, T/C [13]: 97.6%; viability, T/C [14]: 91%; viability, T/C [15]: 82.2%; viability, T/C [16]: 54.1%; viability, T/C [17]: 50.5%; viability, T/C [18]: 44.9%; viability, T/C [19]: 89.4%; viability, T/C [20]: 112%; viability, T/C [21]: 73.5%; viability, T/C [22]: 54.5%; viability, T/C [23]: 39%; viability, T/C [24]: 47.9%; viability, T/C [25]: 77.9%; viability, T/C [26]: 87.1%; viability, T/C [27]: 67.7%; viability, T/C [28]: 42.2%; viability, T/C [29]: 34.6%; viability, T/C [30]: 34.1%; viability, T/C [31]: 81.9%; viability, T/C [32]: 69.1%; viability, T/C [33]: 58.7%; viability, T/C [34]: 34%; viability, T/C [35]: 26.8%; viability, T/C [36]: 30.5%
